Measured values as given in patent US9340590B2 (priority 2011, dated 2016).
Read-outs that look alike come from different tables or passages of the source. Positions of bridges follow the written chain, without caps; N, C: chain ends. Residues, ends and D or L forms follow the SMILES beside them.

What was measured:
Assay in all cases: cell-based
hNav1.7 = hNav1.7 (Homo sapiens, UniProt Q15858); format: cell-based
hNav1.5 = hNav1.5 (Homo sapiens, UniProt Q14524)
hNav1.3 = hNav1.3 (Homo sapiens, UniProt Q9NY46); settings: IonWorks Quattro, read-out: IWQ Use Nav1.3
[1] = IonWorks Quattro, clamped to −110 mV, depolarized to −10 mV, 5 min after compound, n=2, read-out: IWQ Use Nav1.7
[2] = IonWorks Quattro, clamped to −110 mV, depolarized to −10 mV, 5 min after compound, n=2, read-out: IWQ Use Nav1.5
[3] = clamped to −110 mV, depolarized to −10 mV, 5 min after compound, n=2

hNav1.3, sequence (Q9NY46 whole entry, looked up): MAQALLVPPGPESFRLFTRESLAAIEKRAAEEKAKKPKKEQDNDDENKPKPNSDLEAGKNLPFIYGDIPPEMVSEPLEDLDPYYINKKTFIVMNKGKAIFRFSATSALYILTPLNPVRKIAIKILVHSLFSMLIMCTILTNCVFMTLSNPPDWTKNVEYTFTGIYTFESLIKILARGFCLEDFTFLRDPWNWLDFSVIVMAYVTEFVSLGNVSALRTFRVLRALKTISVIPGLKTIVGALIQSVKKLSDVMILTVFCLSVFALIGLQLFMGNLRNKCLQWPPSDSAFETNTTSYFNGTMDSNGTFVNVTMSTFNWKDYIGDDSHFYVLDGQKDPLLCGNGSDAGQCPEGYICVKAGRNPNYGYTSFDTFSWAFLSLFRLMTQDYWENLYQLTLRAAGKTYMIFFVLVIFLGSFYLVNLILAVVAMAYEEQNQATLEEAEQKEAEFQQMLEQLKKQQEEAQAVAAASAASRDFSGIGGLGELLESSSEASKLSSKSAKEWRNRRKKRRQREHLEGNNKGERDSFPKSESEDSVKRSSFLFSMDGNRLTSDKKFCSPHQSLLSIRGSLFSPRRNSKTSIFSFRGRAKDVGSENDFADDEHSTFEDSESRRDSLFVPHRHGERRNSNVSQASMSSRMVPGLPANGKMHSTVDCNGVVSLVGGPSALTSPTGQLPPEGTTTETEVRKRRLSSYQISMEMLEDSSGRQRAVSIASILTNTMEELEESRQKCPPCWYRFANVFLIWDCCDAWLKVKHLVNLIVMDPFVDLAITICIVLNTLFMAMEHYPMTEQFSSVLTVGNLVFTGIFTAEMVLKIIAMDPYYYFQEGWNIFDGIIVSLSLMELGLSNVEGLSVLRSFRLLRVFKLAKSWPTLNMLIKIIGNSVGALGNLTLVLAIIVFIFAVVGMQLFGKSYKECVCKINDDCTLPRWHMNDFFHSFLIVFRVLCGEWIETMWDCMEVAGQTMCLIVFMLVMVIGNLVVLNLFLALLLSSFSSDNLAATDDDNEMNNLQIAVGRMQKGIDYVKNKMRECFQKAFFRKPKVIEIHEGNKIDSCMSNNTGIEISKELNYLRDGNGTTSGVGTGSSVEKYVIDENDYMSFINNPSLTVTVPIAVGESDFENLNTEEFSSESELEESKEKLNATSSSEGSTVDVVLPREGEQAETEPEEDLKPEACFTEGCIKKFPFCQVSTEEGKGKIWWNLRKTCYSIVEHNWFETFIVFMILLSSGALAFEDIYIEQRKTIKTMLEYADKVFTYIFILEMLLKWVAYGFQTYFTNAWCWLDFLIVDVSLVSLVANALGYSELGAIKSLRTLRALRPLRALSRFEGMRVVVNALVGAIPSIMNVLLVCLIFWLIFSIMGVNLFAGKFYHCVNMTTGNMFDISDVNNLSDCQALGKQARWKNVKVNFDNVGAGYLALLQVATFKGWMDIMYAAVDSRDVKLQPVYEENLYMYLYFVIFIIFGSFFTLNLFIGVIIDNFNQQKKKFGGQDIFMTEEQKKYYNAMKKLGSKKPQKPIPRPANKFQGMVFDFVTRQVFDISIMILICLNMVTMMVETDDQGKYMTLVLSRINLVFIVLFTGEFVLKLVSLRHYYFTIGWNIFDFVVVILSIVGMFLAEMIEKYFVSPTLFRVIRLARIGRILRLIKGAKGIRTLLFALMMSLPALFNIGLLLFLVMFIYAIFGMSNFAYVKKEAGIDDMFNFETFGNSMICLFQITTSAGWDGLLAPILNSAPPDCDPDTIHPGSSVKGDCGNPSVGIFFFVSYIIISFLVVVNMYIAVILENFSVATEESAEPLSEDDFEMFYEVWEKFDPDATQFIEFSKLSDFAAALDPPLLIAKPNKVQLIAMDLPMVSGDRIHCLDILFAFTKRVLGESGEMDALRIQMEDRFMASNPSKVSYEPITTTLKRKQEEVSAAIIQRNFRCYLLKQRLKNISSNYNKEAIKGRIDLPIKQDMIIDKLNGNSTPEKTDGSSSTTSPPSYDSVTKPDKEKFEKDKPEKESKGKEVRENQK
hNav1.7, sequence (Q15858 whole entry, looked up): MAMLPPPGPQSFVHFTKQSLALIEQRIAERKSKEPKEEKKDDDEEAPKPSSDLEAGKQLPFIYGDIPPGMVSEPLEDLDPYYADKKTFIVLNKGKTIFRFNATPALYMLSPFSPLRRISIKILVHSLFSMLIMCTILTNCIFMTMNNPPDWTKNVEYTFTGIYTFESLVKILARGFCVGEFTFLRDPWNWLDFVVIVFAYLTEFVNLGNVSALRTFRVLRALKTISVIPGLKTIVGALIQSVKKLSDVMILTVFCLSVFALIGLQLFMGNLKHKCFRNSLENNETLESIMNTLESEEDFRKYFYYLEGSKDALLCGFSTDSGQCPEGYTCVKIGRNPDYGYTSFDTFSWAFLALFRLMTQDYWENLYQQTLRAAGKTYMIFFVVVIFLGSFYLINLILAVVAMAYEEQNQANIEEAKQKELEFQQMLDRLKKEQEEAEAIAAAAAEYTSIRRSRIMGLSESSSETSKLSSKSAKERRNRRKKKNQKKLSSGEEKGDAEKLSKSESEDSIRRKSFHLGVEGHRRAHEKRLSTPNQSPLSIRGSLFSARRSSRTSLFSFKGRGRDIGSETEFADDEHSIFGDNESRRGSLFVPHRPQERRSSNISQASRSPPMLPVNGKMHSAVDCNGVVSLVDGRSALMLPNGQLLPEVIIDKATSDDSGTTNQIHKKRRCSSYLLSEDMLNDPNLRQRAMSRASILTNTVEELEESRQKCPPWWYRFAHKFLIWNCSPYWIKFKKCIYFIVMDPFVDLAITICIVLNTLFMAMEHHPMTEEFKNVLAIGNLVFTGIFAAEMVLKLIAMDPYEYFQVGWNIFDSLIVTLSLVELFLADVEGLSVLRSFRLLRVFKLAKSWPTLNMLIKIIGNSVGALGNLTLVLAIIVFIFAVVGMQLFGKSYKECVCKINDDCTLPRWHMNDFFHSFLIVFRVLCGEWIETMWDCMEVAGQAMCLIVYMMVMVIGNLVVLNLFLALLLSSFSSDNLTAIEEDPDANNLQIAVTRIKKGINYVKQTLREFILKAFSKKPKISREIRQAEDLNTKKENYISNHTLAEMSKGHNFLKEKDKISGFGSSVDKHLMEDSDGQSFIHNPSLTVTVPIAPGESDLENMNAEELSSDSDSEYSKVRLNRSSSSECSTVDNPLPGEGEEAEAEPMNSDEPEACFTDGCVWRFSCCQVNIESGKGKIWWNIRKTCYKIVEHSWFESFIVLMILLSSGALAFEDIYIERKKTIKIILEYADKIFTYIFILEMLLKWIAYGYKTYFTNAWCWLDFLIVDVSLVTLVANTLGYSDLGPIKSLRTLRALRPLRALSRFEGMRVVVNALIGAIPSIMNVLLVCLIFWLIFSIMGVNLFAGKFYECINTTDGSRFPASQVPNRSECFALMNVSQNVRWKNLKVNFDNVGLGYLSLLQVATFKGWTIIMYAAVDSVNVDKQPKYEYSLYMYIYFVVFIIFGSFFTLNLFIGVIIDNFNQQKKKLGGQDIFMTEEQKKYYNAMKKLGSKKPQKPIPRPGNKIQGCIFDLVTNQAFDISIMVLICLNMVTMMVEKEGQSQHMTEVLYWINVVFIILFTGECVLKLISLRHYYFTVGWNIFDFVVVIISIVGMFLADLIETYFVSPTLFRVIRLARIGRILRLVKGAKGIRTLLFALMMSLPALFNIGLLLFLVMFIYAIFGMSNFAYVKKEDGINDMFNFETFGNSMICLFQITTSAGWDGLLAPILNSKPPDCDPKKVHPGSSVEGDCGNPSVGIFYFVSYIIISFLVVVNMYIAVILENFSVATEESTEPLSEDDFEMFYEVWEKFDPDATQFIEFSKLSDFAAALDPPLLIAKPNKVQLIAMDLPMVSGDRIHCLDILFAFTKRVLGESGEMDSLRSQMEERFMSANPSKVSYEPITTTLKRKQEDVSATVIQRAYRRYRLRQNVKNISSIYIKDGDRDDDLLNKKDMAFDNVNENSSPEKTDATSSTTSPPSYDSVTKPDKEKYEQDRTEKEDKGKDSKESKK

With `CC[C@H](C)[C@@H]1NC(=O)[C@@H]2CSSC[C@@H]3NC(=O)[C@H](C(C)C)NC(=O)[C@H](CC(C)C)NC(=O)[C@H](CC(N)=O)NC(=O)[C@H](CO)NC(=O)[C@H](CO)NC(=O)[C@H](CCCNC(=N)N)NC(=O)[C@H](CSSC[C@H](NC(=O)[C@@H](N)CC(=O)O)C(=O)N[C@@H](CC(C)C)C(=O)NCC(=O)N[C@@H](Cc4ccccc4)C(=O)N[C@@H](CCSC)C(=O)N[C@@H](CCCNC(=N)N)C(=O)N[C@@H](CCCCN)C(=O)N2)NC(=O)[C@H](CSSC[C@@H](C(=O)N[C@@H](CCCCN)C(=O)N[C@@H](Cc2ccc(O)cc2)C(=O)N[C@H](C(=O)N[C@@H](Cc2ccccc2)C(N)=O)C(C)C)NC(=O)[C@H](Cc2c[nH]c4ccccc24)NC(=O)[C@H](CCCCN)NC(=O)[C@H](Cc2c[nH]cn2)NC(=O)[C@H]([C@@H](C)O)NC(=O)[C@H](CCCNC(=N)N)NC(=O)[C@H](CO)NC3=O)NC(=O)[C@H](CCCCN)NC(=O)[C@H](CC(=O)O)NC(=O)[C@H](CC(N)=O)NC(=O)[C@H](CC(=O)O)NC(=O)[C@@H]2CCCN2C1=O` [SEQ ID NO: 93, [Ser-Ser19]GpTx-1] (H-DCLGFMRKCIPDNDKCCRSSNLVCSRTHKWCKYVF-NH2; disulfide 2-17, 9-24, 16-31) the IC50 (hNav1.7; IonWorks Quattro, Use, read-out: IWQ Use Nav1.7) was 270 nM, the IC50 (hNav1.5; IonWorks Quattro, Use, read-out: IWQ Use Nav1.5) was 13900 nM and the IC50 (hNav1.3; Use) was 320 nM.
With `CC[C@H](C)[C@@H]1NC(=O)[C@@H]2CSSC[C@@H]3NC(=O)[C@H](C(C)C)NC(=O)[C@H](CC(C)C)NC(=O)[C@H](CC(N)=O)NC(=O)[C@@H]4CCCN4C(=O)[C@H](CCCNC(=N)N)NC(=O)[C@H](CSSC[C@H](NC(=O)[C@@H](N)Cc4ccc(O)cc4)C(=O)N[C@@H](CC(C)C)C(=O)NCC(=O)N[C@@H](Cc4ccccc4)C(=O)N[C@@H](CCSC)C(=O)N[C@@H](CCCNC(=N)N)C(=O)N[C@@H](CCCCN)C(=O)N2)NC(=O)[C@H](CSSC[C@@H](C(=O)N[C@@H](CCCCN)C(=O)N[C@@H](Cc2ccc(O)cc2)C(=O)N[C@H](C(=O)N[C@@H](Cc2ccccc2)C(N)=O)C(C)C)NC(=O)[C@H](Cc2c[nH]c4ccccc24)NC(=O)[C@H](CCCCN)NC(=O)[C@H](Cc2c[nH]cn2)NC(=O)[C@H]([C@@H](C)O)NC(=O)[C@H](CCCNC(=N)N)NC(=O)[C@H](CO)NC3=O)NC(=O)[C@H](CCCCN)NC(=O)[C@H](CC(=O)O)NC(=O)[C@H](CC(N)=O)NC(=O)[C@H](CC(=O)O)NC(=O)[C@@H]2CCCN2C1=O` [SEQ ID NO: 97] (H-YCLGFMRKCIPDNDKCCRPNLVCSRTHKWCKYVF-NH2; disulfide 2-17, 9-23, 16-30) the IC50 (hNav1.7; [1]) was 160 nM, the IC50 (hNav1.5; [2]) was 10600 nM and the IC50 (hNav1.3; [3]) was 130 nM.
`CC[C@H](C)[C@@H]1NC(=O)[C@@H]2CSSC[C@@H]3NC(=O)[C@H](C(C)C)NC(=O)[C@H](CC(C)C)NC(=O)[C@H](CC(N)=O)NC(=O)[C@@H]4CCCN4C(=O)[C@H](CCCNC(=N)N)NC(=O)[C@H](CSSC[C@H](NC(=O)[C@@H](N)CC(=O)O)C(=O)N[C@@H](CCC(N)=O)C(=O)NCC(=O)N[C@@H](Cc4ccccc4)C(=O)N[C@@H](CCSC)C(=O)N[C@@H](CCCNC(=N)N)C(=O)N[C@@H](CCCCN)C(=O)N2)NC(=O)[C@H](CSSC[C@@H](C(=O)N[C@@H](CCCCN)C(=O)N[C@@H](Cc2ccc(O)cc2)C(=O)N[C@H](C(=O)N[C@@H](Cc2ccccc2)C(N)=O)C(C)C)NC(=O)[C@H](Cc2c[nH]c4ccccc24)NC(=O)[C@H](CCCCN)NC(=O)[C@H](Cc2c[nH]cn2)NC(=O)[C@H]([C@@H](C)O)NC(=O)[C@H](CCCNC(=N)N)NC(=O)[C@H](CO)NC3=O)NC(=O)[C@H](CCCCN)NC(=O)[C@H](CC(=O)O)NC(=O)[C@H](CC(N)=O)NC(=O)[C@H](CC(=O)O)NC(=O)[C@@H]2CCCN2C1=O` [SEQ ID NO: 98] (H-DCQGFMRKCIPDNDKCCRPNLVCSRTHKWCKYVF-NH2; disulfide 2-17, 9-23, 16-30) showed an IC50 (hNav1.7; [1]) of 250 nM, an IC50 (hNav1.5; [2]) of 16400 nM and an IC50 (hNav1.3; [3]) of 240 nM.
Work on `CC[C@H](C)[C@@H]1NC(=O)[C@@H]2CSSC[C@@H]3NC(=O)[C@H](C(C)C)NC(=O)[C@H](CC(C)C)NC(=O)[C@H](CC(N)=O)NC(=O)[C@@H]4CCCN4C(=O)[C@H](CCCNC(=N)N)NC(=O)[C@H](CSSC[C@H](NC(=O)[C@@H](N)CC(=O)O)C(=O)N[C@@H](CC(C)C)C(=O)NCC(=O)N[C@@H](Cc4cccc5ccccc45)C(=O)N[C@@H](CCSC)C(=O)N[C@@H](CCCNC(=N)N)C(=O)N[C@@H](CCCCN)C(=O)N2)NC(=O)[C@H](CSSC[C@@H](C(=O)N[C@@H](CCCCN)C(=O)N[C@@H](Cc2ccc(O)cc2)C(=O)N[C@H](C(=O)N[C@@H](Cc2ccccc2)C(N)=O)C(C)C)NC(=O)[C@H](Cc2c[nH]c4ccccc24)NC(=O)[C@H](CCCCN)NC(=O)[C@H](Cc2c[nH]cn2)NC(=O)[C@H]([C@@H](C)O)NC(=O)[C@H](CCCNC(=N)N)NC(=O)[C@H](CO)NC3=O)NC(=O)[C@H](CCCCN)NC(=O)[C@H](CC(=O)O)NC(=O)[C@H](CC(N)=O)NC(=O)[C@H](CC(=O)O)NC(=O)[C@@H]2CCCN2C1=O` [SEQ ID NO: 105] yielded an IC50 (hNav1.7; [1]) of 80 nM, an IC50 (hNav1.5; IWQ Use Nav1.5) of 13400 nM and an IC50 (hNav1.3; [3]) of 100 nM.
`CC[C@H](C)[C@@H]1NC(=O)[C@@H]2CSSC[C@@H]3NC(=O)[C@H](C(C)C)NC(=O)[C@H](CC(C)C)NC(=O)[C@H](CC(N)=O)NC(=O)[C@@H]4CCCN4C(=O)[C@H](CCCNC(=N)N)NC(=O)[C@H](CSSC[C@H](NC(=O)[C@H](CC(=O)O)NC(=O)[C@@H](N)Cc4c[nH]c5ccccc45)C(=O)N[C@@H](CC(C)C)C(=O)NCC(=O)N[C@@H](Cc4ccccc4)C(=O)N[C@@H](CCSC)C(=O)N[C@@H](CCCNC(=N)N)C(=O)N[C@@H](CCCCN)C(=O)N2)NC(=O)[C@H](CSSC[C@@H](C(=O)N[C@@H](CCCCN)C(=O)N[C@@H](Cc2ccc(O)cc2)C(=O)N[C@H](C(=O)N[C@@H](Cc2ccccc2)C(N)=O)C(C)C)NC(=O)[C@H](Cc2c[nH]c4ccccc24)NC(=O)[C@H](CCCCN)NC(=O)[C@H](Cc2cnc[nH]2)NC(=O)[C@H]([C@@H](C)O)NC(=O)[C@H](CCCNC(=N)N)NC(=O)[C@H](CO)NC3=O)NC(=O)[C@H](CCCCN)NC(=O)[C@H](CC(=O)O)NC(=O)[C@H](CC(N)=O)NC(=O)[C@H](CC(=O)O)NC(=O)[C@@H]2CCCN2C1=O` [SEQ ID NO: 106] showed an IC50 (hNav1.7; [1]) of 220 nM, an IC50 (hNav1.5; [2]) of 22000 nM and an IC50 (hNav1.3; [3]) of 250 nM.
Work on `CC[C@H](C)[C@@H]1NC(=O)[C@@H]2CSSC[C@@H]3NC(=O)[C@H](C(C)C)NC(=O)[C@H](CC(C)C)NC(=O)[C@H](CC(N)=O)NC(=O)[C@@H]4CCCN4C(=O)[C@H](CCCNC(=N)N)NC(=O)[C@H](CSSC[C@H](NC(=O)[C@@H](N)CC(=O)O)C(=O)N[C@@H](CC(C)C)C(=O)NCC(=O)N[C@@H](Cc4ccccc4)C(=O)N[C@@H](CCSC)C(=O)N[C@@H](CCCNC(=N)N)C(=O)N[C@@H](CCCCN)C(=O)N2)NC(=O)[C@H](CSSC[C@@H](C(=O)N[C@@H](CCCCN)C(=O)N[C@@H](Cc2ccc(O)cc2)C(=O)N[C@H](C(=O)N[C@@H](Cc2ccccc2)C(N)=O)C(C)C)NC(=O)[C@H](Cc2c[nH]c4ccccc24)NC(=O)[C@H](CCCCN)NC(=O)[C@H](Cc2cnc[nH]2)NC(=O)[C@H](CC(C)C)NC(=O)[C@H](CCCNC(=N)N)NC(=O)[C@H](CO)NC3=O)NC(=O)[C@H](CCCCN)NC(=O)[C@H](CC(=O)O)NC(=O)[C@H](CC(N)=O)NC(=O)[C@H](CC(=O)O)NC(=O)[C@@H]2CCCN2C1=O` [SEQ ID NO: 121, [Leu26]GpTx-1] (H-DCLGFMRKCIPDNDKCCRPNLVCSRLHKWCKYVF-NH2; disulfide 2-17, 9-23, 16-30) yielded an IC50 (hNav1.7) of 70 nM, an IC50 (hNav1.5; Table 22, IonWorks Quattro, use, […], read-out: IWQ Use Nav1.5) of 10200 nM and an IC50 (hNav1.3; Table 22, use, […]) of 70 nM.
Compound `CC[C@@H]1NC(=O)[C@H](Cc2ccccc2)NC(=O)CNC(=O)[C@H](CC(C)C)NC(=O)[C@@H](NC(=O)[C@@H](N)CC(=O)O)CSSC[C@@H]2NC(=O)[C@@H]3CSSC[C@@H](C(=O)N[C@@H](CCCCN)C(=O)N[C@@H](Cc4ccc(O)cc4)C(=O)N[C@H](C(=O)N[C@@H](Cc4ccccc4)C(N)=O)C(C)C)NC(=O)[C@H](Cc4c[nH]c5ccccc45)NC(=O)[C@H](CCCCN)NC(=O)[C@H](Cc4c[nH]cn4)NC(=O)[C@H]([C@@H](C)O)NC(=O)[C@H](CCCNC(=N)N)NC(=O)[C@H](CO)NC(=O)[C@H](CSSC[C@H](NC(=O)[C@H](CCCCN)NC(=O)[C@H](CCCNC(=N)N)NC1=O)C(=O)N[C@@H]([C@@H](C)CC)C(=O)N1CCC[C@H]1C(=O)N[C@@H](CC(=O)O)C(=O)N[C@@H](CC(N)=O)C(=O)N[C@@H](CC(=O)O)C(=O)N[C@@H](CCCCN)C(=O)N3)NC(=O)[C@H](C(C)C)NC(=O)[C@H](CC(C)C)NC(=O)[C@H](CC(N)=O)NC(=O)[C@@H]1CCCN1C(=O)[C@H](CCCNC(=N)N)NC2=O` [SEQ ID NO: 124] has an IC50 (hNav1.7; [1]) of 110 nM, an IC50 (hNav1.5; [2]) of 10600 nM and an IC50 (hNav1.3; [3]) of 100 nM.
